Reference: US20190328721A1, “METHOD OF ACTIVATING DENDRITIC CELLS” (KOREA INSTITUTE OF SCIENCE AND TECHNOLOGY, priority 2018, published 2019)

How the values were obtained:
CT26 cancer cells = test: CT26 tumor model; type: in vivo, mice; settings: fasudil 20 mg/kg; Y27632 10 mg/kg
Experimental: The same procedure as described above was repeated except that CT26 was used instead of the CT26.CL25 colon cancer cell line and fasudil (Selleck Chemicals, USA) at 20 mg/kg of body weight or Y27632 at 10 mg/kg of body weight was administered.

OT-1 T cells = test: Co-culture of OT-1 T cells with phagocytes isolated from B16F10-Ova-bearing mice (IFN-γ); type: in vivo
Experimental: In addition, the expression of IFN-γ in OT-1 T cells co-cultured with macrophages and dendritic cells isolated from the tumor-draining lymph nodes and the tumor tissues in the B16F10-Ova cancer model mice was assessed using IFN-γ ELISA kit (R&D Systems, Inc, USA). It was confirmed that the amount of IFN-γ was increased when the dendritic cells isolated from the tumor-draining lymph nodes and the tumor tissues were co-cultured with OT-1 T cells (FIG. 14D). However, there was no change in the amount of IFN-γ when macrophages and OT-1 T cells were co-cultured.
The present inventors investigated whether the combined administration of Y27632 and doxorubicin induces immunity enhancement through CD8 T cells. For this purpose, dendritic cells isolated from tumor-draining lymph nodes of B16F10-Ova-bearing cancer model mice were co-cultured with OT-1 T cells, and then the amount of IFN-γ was measured by IFN-γ ELISA kit (R&D Systems, USA). […] In addition, it was confirmed that the amount of IFN-γ-positive T cells increased when the dendritic cells derived from mice administered with the combined administration were co-cultured with OT-1 T cells (FIG. 18G).

CD103 DCs = test: Phagocytosis of cancer cells by dendritic cells excised from tumor tissues; type: in vivo; settings: compared with CD103 DCs from control mice
Description: The present inventors excised dendritic cells from tumor tissues and analyzed the phagocytosis of dendritic cells against cancer cells in vitro using the same method as described in Example 1-1.

[1] = system: bone marrow-derived dendritic cells (BMDCs); test: Phagocytosis of cancer cells by bone marrow-derived dendritic cells in vitro; type: cell-based, mice
Experimental: Specifically, the present inventors prepared bone marrow-derived macrophages (BMDMs) differentiated from excised bone marrow of mice using M-CSF and bone marrow-derived dendritic cells (BMDCs) differentiated from excised bone marrow using Flt3L. The degree of differentiation was confirmed by flow cytometry analysis using antibodies specifically binding to F4/80 (BMDM marker) and CD11c (BMDC marker), respectively (FIGS. 2A and 2B).
The prepared BMDMs and BMDCs were stained with 1 μM CellTracker Deep Red (Thermo Fisher Scientific, USA). 30 μM of Y27632 (Abcam, USA) or 30 μM of fasudil (Selleck Chemicals, USA) was added to each of 15×10^4 cells/ml of the stained macrophages and dendritic cells and incubated at 37° C. for 1 hour. As a negative control, macrophages or dendritic cells that were not incubated with Y27632 and fasudil were used.
Bone marrow-derived macrophages or dendritic cells prepared in RPMI medium and cancer cell lines stained with 1 μM CellTracker CMFDA (Thermo Fisher Scientific, USA) were co-cultured at about 37° C. for about 2 hours. CT26.CL25, a colon cancer cell line, and B16F10-OVA, a melanoma cell line, were used as the cancer cells.
Thereafter, the percentage of cancer cells was measured by flow cytometry, and the phagocytosis ratio of macrophages and dendritic cells against cancer cells was calculated. The results are shown in FIGS. 2C to 2F (left: cancer cell line CT26.CL25, right: cancer cell line B16F10-OVA).
In order to more accurately analyze the phagocytosis of macrophages and dendritic cells against cancer cells according to the treatment of the ROCK inhibitor, the present inventors analyzed phagocytosis of the BMDMs and BMDCs against CT26.CL25 colon cancer cells using the pHrodo-SE dye, which changes in fluorescence depending on pH. When […], the pH of the cancer cells decreased and became red. When treated with Y27632 as described above for the above-mentioned phagocytosis response, the phagocytic activities of both the BMDMs and BMDCs against cancer cells were improved.
The present inventors performed an experiment to confirm how long the phagocytosis of BMDMs and BMDCs against cancer cells due to the ROCK inhibitor is maintained. Specifically, BMDMs and BMDCs were pretreated with Y27632 for 1 hour, then Y27632 was removed, and immediately after 30 minutes, 1 hour, 2 hours, or 4 hours, the phagocytosis against CT26.CL25 and B16F10-Ova was measured using a flow cytometer. The other experimental conditions were the same as in Example 1-1.
In order to confirm whether the ROCK inhibitor increases phagocytosis against cancer cells by acting on phagocytic cells (BMDMs or BMDCs) themselves, Y27632 was used to pretreat the phagocytic cells or cancer cells for 1 hour, and the phagocytic activity was analyzed using the same procedure described in Example 1-1. […]
Phagocytic activity of bone marrow-derived dendritic cells (BMDCs) differentiated from bone marrow cells against cancer cells was analyzed by treating the BMDCs with ROCK inhibitor Y27632 (30 μM) for 1 hour and then co-cultivating with CT26.CL25 colon cancer cells pretreated with 25 μM of doxorubicin for 24 hours or B16F10-Ova malignant melanoma cells treated with 30 μM of Y27632 for 1 hour and then treated with 2.5 μM doxorubicin (Sigma-Aldrich, USA) for 24 hours by pHrodo SE (Thermo Fisher Scientific, USA) staining (BMDC:Dox-treated B16F10-Ova=1:1). As shown in FIGS. 16A to 16D, it was confirmed that the phagocytic activity of BMDCs induced by doxorubicin were increased in the Y27632-treated group compared to the control group (FIGS. 16A to 16D). […]

[2] = system: macrophages (F4/80+ cells) and dendritic cells (CD11c+ cells); test: In vivo phagocytosis of injected apoptotic thymocytes by spleen phagocytes; design: species or system mice; settings: 10 mg/kg intraperitoneally; spleen after 1 hour
Experimental: The present inventors investigated whether the phagocytosis caused by the ROCK inhibitor could be enhanced not only in vitro but also in vivo. For this purpose, thymocytes stained with CFSE (carboxyfluorescein succinimidyl ester, Thermo Fisher Scientific, Inc., USA) and in which apoptosis was induced by 1 μM dexamethasone were injected to the blood vessel of mice who were pre-injected with 10 mg/kg of Y27632 intraperitoneally. After 1 hour, the spleen was extracted from the mice and the spleen was single celled. The phagocytic activities of macrophages (F4/80^+ cells) and dendritic cells (CD11c^+ cells) against apoptotic thymocytes were analyzed (FIGS. 7B and 7C).

[3] = from tumor-draining lymph nodes

## C[C@@H](N)[C@H]1CC[C@H](C(=O)Nc2ccncc2)CC1 [Y27632]
CT26 cancer cells
  growth of cancer (size of the tumor): inhibited the growth of cancer
OT-1 T cells; dendritic cells from tumor-draining lymph nodes and tumor tissues
  amount of IFN-γ, dendritic cells co-cultured with OT-1 T cells: increased
OT-1 T cells; dendritic cells from tumor-draining lymph nodes, doxorubicin study
  T cell priming (amount of IFN-γ), dendritic cells co-cultured with OT-1 T cells: increased
OT-1 T cells; [3]
  proportion of IFN-γ-positive T cells, dendritic cells co-cultured: increased
  proportion of IFN-γ-positive T cells, macrophages co-cultured: did not affect
OT-1 T cells; mouse, in vivo
  amount of IFN-γ, macrophages co-cultured with OT-1 T cells: no change
CD103 DCs
  phagocytosis against cancer cells of CD103 DCs isolated from treated mice: significantly enhanced
[1]; 30 μM, 1 hour, CT26.CL25 (25 μM doxorubicin) or B16F10-Ova (2.5 μM doxorubicin), 24 hours
  phagocytic activity of BMDCs against doxorubicin-treated cancer cells: increased
[1]; 30 μM, 1 hour, co-culture with CT26.CL25 or B16F10-OVA about 2 hours
  phagocytic ability of dendritic cells against cancer cells: significantly increased
[1]; CT26.CL25 colon cancer cells
  phagocytic activity of BMDCs against cancer cells (pHrodo-SE dye): improved
[1]; cancer cells pretreated for 1 hour
  phagocytosis by BMDCs against cancer cells, cancer cells pre-treated: not increased
[1]; phagocytic cells pretreated for 1 hour
  phagocytosis against cancer cells, BMDCs pretreated: increased
[1]; pretreated 1 hour, then removed, CT26.CL25 and B16F10-Ova
  time for which BMDCs maintain phagocytosis after the pretreatment: ≤ 1 h
[2]
  phagocytosis of spleen dendritic cells against apoptotic thymocytes: significantly enhanced
  phagocytosis of spleen macrophages against apoptotic thymocytes: significantly enhanced
